# Reference: ChEMBL document CHEMBL3997784, “Discovery of new nanomolar inhibitors of GPa: Extension of 2-oxo-1,2-dihydropyridinyl-3-yl amide-based GPa inhibitors” (Eur J Med Chem, 2017)
# Active and inactive are the calls of the source. The calls are words filed in the database; no cut-off is given here.
# Assays:
# [1] = molecular target: Glycogen phosphorylase, muscle form (Oryctolagus cuniculus) (UniProt P00489); test: Inhibition of rabbit muscle glycogen phosphorylase A assessed as release of inorganic phosphate from glucose-1- phosphate in presence of glycogen at 222 uM after 30 mins by malachite green based assay relative to control
# [2] = molecular target: Glycogen phosphorylase, muscle form (Oryctolagus cuniculus) (UniProt P00489); test: Inhibition of rabbit muscle glycogen phosphorylase A assessed as release of inorganic phosphate from glucose-1- phosphate in presence of glycogen after 30 mins by malachite green based assay
# [3] = molecular target: Glycogen phosphorylase, muscle form (Oryctolagus cuniculus) (UniProt P00489); test: Inhibition of rabbit muscle glycogen phosphorylase A assessed as release of inorganic phosphate from glucose-1- phosphate in presence of glycogen at 2.2 uM after 30 mins by malachite green based assay relative to control
# [4] = molecular target: T1, Glycogen phosphorylase, muscle form (Rattus norvegicus) (UniProt P09812); details: 22.2 uM
# T1 sequence (whole entry): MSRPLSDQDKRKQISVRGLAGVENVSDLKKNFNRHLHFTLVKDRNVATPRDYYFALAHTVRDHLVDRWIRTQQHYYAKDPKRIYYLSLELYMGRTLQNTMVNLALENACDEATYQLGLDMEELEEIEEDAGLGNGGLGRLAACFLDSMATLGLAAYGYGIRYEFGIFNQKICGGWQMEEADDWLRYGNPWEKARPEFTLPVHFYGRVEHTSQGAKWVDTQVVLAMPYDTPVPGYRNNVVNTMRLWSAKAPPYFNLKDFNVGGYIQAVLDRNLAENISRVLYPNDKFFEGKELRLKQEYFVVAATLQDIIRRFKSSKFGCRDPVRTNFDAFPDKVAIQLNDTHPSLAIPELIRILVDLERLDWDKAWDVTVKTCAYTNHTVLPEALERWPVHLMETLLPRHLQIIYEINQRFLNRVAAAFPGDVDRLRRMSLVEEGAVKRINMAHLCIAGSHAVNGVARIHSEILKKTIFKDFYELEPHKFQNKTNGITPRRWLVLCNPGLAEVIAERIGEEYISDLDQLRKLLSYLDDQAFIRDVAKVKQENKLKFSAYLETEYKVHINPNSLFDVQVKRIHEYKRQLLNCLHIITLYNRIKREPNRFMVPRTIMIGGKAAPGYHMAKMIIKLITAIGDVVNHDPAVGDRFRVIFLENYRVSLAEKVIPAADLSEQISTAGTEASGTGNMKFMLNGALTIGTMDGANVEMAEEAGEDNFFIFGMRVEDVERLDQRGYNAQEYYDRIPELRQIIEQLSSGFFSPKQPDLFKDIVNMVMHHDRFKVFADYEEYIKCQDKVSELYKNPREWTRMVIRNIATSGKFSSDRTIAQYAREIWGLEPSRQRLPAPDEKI
# Description: Inhibition of rat muscle glycogen phosphorylase A assessed as release of inorganic phosphate from glucose-1- phosphate in presence of glycogen at 22.2 uM after 30 mins by malachite green based assay relative to control
# Chain of Glycogen phosphorylase, muscle form (Oryctolagus cuniculus) (P00489 whole entry, looked up): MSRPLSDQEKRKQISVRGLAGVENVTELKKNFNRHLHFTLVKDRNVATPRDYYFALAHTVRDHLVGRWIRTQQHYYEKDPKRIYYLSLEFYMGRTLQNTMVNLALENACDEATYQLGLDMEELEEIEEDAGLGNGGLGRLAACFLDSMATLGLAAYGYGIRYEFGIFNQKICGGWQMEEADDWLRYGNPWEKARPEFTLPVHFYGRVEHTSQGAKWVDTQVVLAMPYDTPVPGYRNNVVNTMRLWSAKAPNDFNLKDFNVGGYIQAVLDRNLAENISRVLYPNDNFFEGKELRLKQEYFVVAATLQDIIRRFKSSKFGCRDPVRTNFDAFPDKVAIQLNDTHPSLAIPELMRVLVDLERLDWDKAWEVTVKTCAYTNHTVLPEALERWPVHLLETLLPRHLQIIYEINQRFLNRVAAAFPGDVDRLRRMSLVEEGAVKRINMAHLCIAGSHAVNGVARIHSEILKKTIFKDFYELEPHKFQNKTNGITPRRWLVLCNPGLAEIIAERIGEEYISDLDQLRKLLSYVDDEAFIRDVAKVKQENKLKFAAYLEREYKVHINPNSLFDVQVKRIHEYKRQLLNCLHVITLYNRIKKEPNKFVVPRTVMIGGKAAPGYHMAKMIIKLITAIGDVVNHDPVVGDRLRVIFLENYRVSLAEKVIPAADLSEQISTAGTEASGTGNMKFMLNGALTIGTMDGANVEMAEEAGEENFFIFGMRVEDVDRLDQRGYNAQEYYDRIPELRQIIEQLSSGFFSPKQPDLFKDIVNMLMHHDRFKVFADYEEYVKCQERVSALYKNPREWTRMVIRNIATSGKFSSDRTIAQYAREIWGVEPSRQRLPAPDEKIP
Compound,inhibition [1],IC50 [2] [µM],further results
O=C(NCc1ccc(Cl)c(Cl)c1)C1CCCN(C(=O)c2ccccc2)C1=O (centres undefined),39%,–,–
O=c1c(NCc2ccc(Cl)c(Cl)c2)cccn1Cc1ccccc1,> 85%,33,–
Cn1cccc(NCc2ccc(Cl)c(Cl)c2)c1=O,34%,–,–
O=C(NCc1ccccc1)C1CCCN(C(=O)c2ccccc2Cl)C1=O (centres undefined),38%,–,–
O=C(NCc1ccccc1)C1CCCN(C(=O)c2ccccc2)C1=O (centres undefined),inactive,–,–
Cc1ccn(CC(=O)NCc2ccc(Cl)c(Cl)c2)c(=O)c1NCc1ccccc1,38%,–,–
O=c1c(NCc2ccccc2)cccn1Cc1ccccc1,inactive,–,–

# Now from value to molecule, other results behind:
inhibition [1],IC50 [2] [µM],Compound,further results
–,0.26,O=C(Cn1cccc(NCc2ccc(CNc3cccn(CC(=O)NCc4ccc(Cl)c(Cl)c4)c3=O)s2)c1=O)NCc1ccc(Cl)c(Cl)c1,inhibition [3]: > 85%
–,1.6,CCCNC(=O)Cn1cccc(NC(=O)Nc2ccc(NC(=O)Nc3cccn(CC(=O)NCCC)c3=O)cc2)c1=O,inhibition [4]: > 85%
–,0.23,O=C(Cn1cccc(NC(=O)Nc2ccc(NC(=O)Nc3cccn(CC(=O)NCc4ccc(Cl)c(Cl)c4)c3=O)cc2)c1=O)NCc1ccc(Cl)c(Cl)c1,inhibition [3]: > 85%
> 85%,3.1,CCOC(=O)Cn1cccc(NC(=O)Nc2ccc(NC(=O)Nc3cccn(CC(=O)OCC)c3=O)cc2)c1=O,–
29%,–,CCOC(=O)Cn1cccc(NCc2ccc(CNc3cccn(CC(=O)OCC)c3=O)s2)c1=O,–
60%,–,O=C(Cn1cccc(NCc2ccccc2)c1=O)NCc1cn(Cc2ccccc2)nn1,–
inactive,–,O=C(Cn1cccc(NC(=O)c2ccccc2)c1=O)NCCNC(=O)Cn1cccc(NC(=O)c2ccccc2)c1=O,–
